Laboratory results as given in patent US7618626B2, “Combination treatment for non-hematologic malignancies” (Pfizer Inc, priority 2004, dated 2009).
Read-outs that look alike come from different tables or passages of the source. One block for each molecule: values may come before it.

Key:
[1] = system: hormone-receptor-positive breast cancer; conditions: cited from earlier work
[2] = target: T1, IGF-1R (Homo sapiens, UniProt P08069); assay: IGF-1R phosphotyrosine signal in 3T3-IGF-1R tumors; format: in vivo; conditions: FIG. 4
T1 construct: expressed in transfected cells; host or cells: NIH-3T3 (mouse fibroblast) transfectant, grown as tumors in athymic mice

[3] = system: tumors of the transfectant IGF-1R over-expressing NIH-3T3 cell line; assay: 3T3-IGF-1R tumor growth in vivo (athymic mice, intraperitoneal administration); conditions: FIG. 5
Method: When incubated with cells, fully human monoclonal antibodies that are highly specific and potent inhibitors of IGF-1-induced receptor autophosphorylation induced down-regulation of IGF-1R by receptor internalization. […] The serum concentration of anti-IGF-1R antibodies that led to 50% growth inhibition was 20 μg/ml at Day 1, and 13 μg/ml at Day 9. Similar anti-tumor studies were extended to human tumor xenograft models. As a single agent, anti-IGF-1R antibodies inhibited the growth of several xenograft models including breast, lung and colorectal carcinomas.

Molecule: CC/C(=C(\c1ccccc1)c1ccc(OCCN(C)C)cc1)c1ccccc1 [Tamoxifen]
reduction of recurrence ([1]; post-menopausal women): 40-50%
reduction of recurrence ([1]; pre-menopausal women): 30-50%

IGF-1R phosphotyrosine signal in 3T3-IGF-1R tumors [2]: reduce IGF-1R phosphotyrosine signal
B1: 2.13.2: fully human anti-IGF-1R monoclonal antibody; hybridoma ATCC PTA-2788 (antibody)
heavy: EVQLLESGGGLVQPGGSLRLSCTASGFTFSSYAMNWVRQAPGKGLEWVSAISGSGGTTFYADSVKGRFTISRDNSRTTLYLQMNSLRAEDTAVYYCAKDLGWSDSYYYYYGMDVWGQGTTVTVSSASTKGPSVFPLAPCSRSTSESTAALGCLVKDYFPEPVTVSWNSGALTSGVHTFPAVLQSSGLYSLSSVVTVPSSNFGTQTYTCNVDHKPSNTKVDKTVERKCCVECPPCPAPPVAGPSVFLFPPKPKDTLMISRTPEVTCVVVDVSHEDPEVQFNWYVDGVEVHNAKTKPREEQFNSTFRVVSVLTVVHQDWLNGKEYKCKVSNKGLPAPIEKTISKTKGQPREPQVYTLPPSREEMTKNQVSLTCLVKGFYPSDIAVEWESNGQPENNYKTTPPMLDSDGSFFLYSKLTVDKSRWQQGNVFSCSVMHEALHNHYTQKSLSLSPGK
light: DIQMTQFPSSLSASVGDRVTITCRASQGIRNDLGWYQQKPGKAPKRLIYAASRLHRGVPSRFSGSGSGTEFTLTISSLQPEDFATYYCLQHNSYPCSFGQGTKLEIKRTVAAPSVFIFPPSDEQLKSGTASVVCLLNNFYPREAKVQWKVDNALQSGNSQESVTEQDSKDSTYSLSSTLTLSKADYEKHKVYACEVTHQGLSSPVTKSFNRGEC
3T3-IGF-1R tumor growth in vivo [3]: inhibits 3T3-IGF-1R tumor growth in vivo
